95 molecules from a flash point compilation (Sun et al. 2020) can be followed below.

Regarding `C[C@H]1CCCC[C@H]1O` (relative stereo) [cis-2-methylcyclohexanol], the flash point stood at 59 °C.

`C[C@H]1CCC[C@H](C)C1` (relative stereo) [trans-1,3-dimethylcyclohexane] yielded a flash point of 8 °C.

For `C[C@@H]1CC(=O)[C@@H](C)C1` (relative stereo) [trans-2,4-dimethylcyclopentanone], the flash point was found to be 42 °C.

As to `C[C@@H]1CC(=O)C[C@H]1C` (relative stereo) [trans-3,4-dimethylcyclopentanone], the flash point came out at 41 °C.

For the molecule `C=C(Cl)Cl` [1,1-dichloroethene], the flash point was -25 °C.

`CCC(Cl)Cl` [1,1-dichloropropane] displayed a flash point of 7 °C.

As to `CC1(C)CCCC1` [1,1-dimethylcyclopentane], the flash point is -16 °C.

For `c1ccc2c(c1)CCCC2` [1,2,3,4-tetrahydronaphthalene], the flash point came out at 71 °C.

In the case of `Cc1cc(C)c(C)c(C)c1` [1,2,3,5-tetramethylbenzene], the flash point stood at 63 °C.

For the molecule `COc1ccccc1OC` [1,2-dimethoxybenzene], the flash point was 87 °C.

`CCCc1cccc(C)c1C` [1,2-dimethyl-3-propylbenzene] displayed a flash point of 72 °C.

`CC(O)CO` (stereo not given) [1,2-propanediol]: the flash point stood at 99 °C.

Molecule `CC(O)CCO` (stereo not given) [1,3-butanediol] gave a flash point of 109 °C.

For the molecule `C1=CCCC=C1` [1,3-cyclohexadiene], the flash point was -16 °C.

As to `CC(Cl)CCCl` (stereo not given) [1,3-dichlorobutane], the flash point was 31 °C.

On to `C1COCO1` [1,3-dioxolane], for which the flash point is -6 °C.

In the case of `OCCCCO` [1,4-butanediol], the flash point came to 121 °C.

This is another data set of the same source.
Consider `CCC(CC)OC(C)=O` [pentan-3-yl acetate], for which the flash point stood at 33.00 °C.

In turn, `CCCCCS` [pentane-1-thiol] came in with a flash point of 18.00 °C.

`CC(=O)CC(C)=O` [pentane-2,4-dione] showed a flash point of 34.00 °C.

In the case of `CCCCC#N` [pentanenitrile], the flash point was 41.00 °C.

Regarding `CCCCC(=O)O` [pentanoic acid], the flash point stood at 89.00 °C.

Molecule `CCCCCOC(=O)CCC` [pentyl butanoate] returned a flash point of 57.00 °C.

With `CCCCCON=O` [pentyl nitrite], the flash point is 10.00 °C.

Take `c1ccc2c(c1)ccc1ccccc12` [phenanthrene]: the flash point worked out at 171.00 °C.

The molecule `Oc1ccccc1` [phenol] registered a flash point of 79.00 °C.

On to `NNc1ccccc1` [phenylhydrazine], for which the flash point came to 88.00 °C.

In turn, `NCc1ccccc1` [phenylmethanamine] had a flash point of 76.00 °C.

Molecule `SCc1ccccc1` [phenylmethanethiol] yielded a flash point of 70.00 °C.

With `c1ccc(COCc2ccccc2)cc1` [phenylmethoxymethylbenzene], the flash point was 135.00 °C.

`O=C(O)c1ccccc1C(=O)O` [phthalic acid] came in with a flash point of 168.00 °C.

With `C1CCNCC1` [piperidine], the flash point came to 3.00 °C.

In the case of `C[O-].[K+]` [potassium;methanolate], the flash point was determined as 11.00 °C.

Take `C=CC(N)=O` [prop-2-enamide]: the flash point was 138.00 °C.

`C=CC#N` [prop-2-enenitrile] returned a flash point of 0.00 °C.

Turning to `C=CCOC(C)=O` [prop-2-enyl acetate], the flash point was determined as 22.00 °C.

`C#CCO` [prop-2-yn-1-ol] came in with a flash point of 33.00 °C.

Consider `C#CC(=O)O` [prop-2-ynoic acid], for which the flash point was 58.00 °C.

Take `CCCO` [propan-1-ol]: the flash point came to 25.00 °C.

The molecule `C=C(C)C(=O)OC(C)C` [propan-2-yl 2-methylprop-2-enoate] had a flash point of 21.00 °C.

With `CC(=O)OC(C)C` [propan-2-yl acetate], the flash point turned out to be 2.00 °C.

In turn, `CC(C)OC(=O)Cl` [propan-2-yl carbonochloridate] registered a flash point of 16.00 °C.

`CC(C)C1CCCCC1` [propan-2-ylcyclohexane]: the flash point came to 36.00 °C.

In the case of `CCC=O` [propanal], the flash point was -9.00 °C.

`OCC(O)CO` [propane-1,2,3-triol]: the flash point amounted to 160.00 °C.

As for `CC(N)CN` (stereo not given) [propane-1,2-diamine], the flash point was found to be 33.00 °C.

For the molecule `NCCCN` [propane-1,3-diamine], the flash point is 24.00 °C.

The molecule `OCCCO` [propane-1,3-diol] displayed a flash point of 174.00 °C.

In the case of `SCCCS` [propane-1,3-dithiol], the flash point was determined as 59.00 °C.

The molecule `CCC` [propane] returned a flash point of -104.00 °C.

As for `N#CCC#N` [propanedinitrile], the flash point came out at 130.00 °C.

The molecule `CCC#N` [propanenitrile] registered a flash point of 2.00 °C.

In turn, `CCC(=O)Cl` [propanoyl chloride] had a flash point of 12.00 °C.

As for `Nc1cccnc1` [pyridin-3-amine], the flash point stood at 190.00 °C.

Molecule `Nc1ccncc1` [pyridin-4-amine] yielded a flash point of 164.00 °C.

`NC(=O)c1cccnc1` [pyridine-3-carboxamide] showed a flash point of 182.00 °C.

The molecule `O=C(O)c1cccnc1` [pyridine-3-carboxylic acid] came in with a flash point of 193.00 °C.

Regarding `c1ccncc1` [pyridine], the flash point was found to be 20.00 °C.

For the molecule `O=C1CCCN1` [pyrrolidin-2-one], the flash point was 129.00 °C.

In turn, `C1CCNC1` [pyrrolidine] gave a flash point of 3.00 °C.

In turn, `Cc1ccc(S(=O)(=O)[N-]Cl)cc1.[Na+]` [sodium;chloro-(4-methylphenyl)sulfonylazanide] displayed a flash point of 192.00 °C.

In turn, `O=C(O)c1ccc(C(=O)O)cc1` [terephthalic acid] showed a flash point of 260.00 °C.

With `CC(C)(C)OOC(=O)c1ccccc1` [tert-butyl benzenecarboperoxoate], the flash point is 93.00 °C.

`C=CC(=O)OC(C)(C)C` [tert-butyl prop-2-enoate]: the flash point amounted to 19.00 °C.

The molecule `C=CCCCCCCCCCCCC` [tetradec-1-ene] gave a flash point of 110.00 °C.

In turn, `CCO[Si](OCC)(OCC)OCC` [tetraethyl silicate] displayed a flash point of 37.00 °C.

Consider `C[CH2][Pb]([CH2]C)([CH2]C)[CH2]C` [tetraethylplumbane], for which the flash point is 93.00 °C.

Turning to `[CH3][Pb]([CH3])([CH3])[CH3]` [tetramethylplumbane], the flash point turned out to be 38.00 °C.

For `O=S1(=O)CCCC1` [thiolane 1,1-dioxide], the flash point came to 166.00 °C.

`c1ccsc1` [thiophene] had a flash point of -1.00 °C.

Molecule `ClC[Si](Cl)(Cl)Cl` [trichloro(chloromethyl)silane] displayed a flash point of 69.00 °C.

On to `C=C[Si](Cl)(Cl)Cl` [trichloro(ethenyl)silane], for which the flash point amounted to 21.00 °C.

Consider `CC[Si](Cl)(Cl)Cl` [trichloro(ethyl)silane], for which the flash point was 22.00 °C.

Turning to `C[Si](Cl)(Cl)Cl` [trichloro(methyl)silane], the flash point was -9.00 °C.

`Cl[Si](Cl)(Cl)c1ccccc1` [trichloro(phenyl)silane] showed a flash point of 91.00 °C.

`CCC[Si](Cl)(Cl)Cl` [trichloro(propyl)silane] showed a flash point of 37.00 °C.

Molecule `C=CC(=O)OCCCCCCCCCCCCC` [tridecyl prop-2-enoate] gave a flash point of 132.00 °C.

Turning to `CCOC(=O)CC(O)(CC(=O)OCC)C(=O)OCC` [triethyl 2-hydroxypropane-1,2,3-tricarboxylate], the flash point came to 155.00 °C.

`CCOP(=O)(OCC)OCC` [triethyl phosphate] displayed a flash point of 116.00 °C.

Consider `CCOP(OCC)OCC` [triethyl phosphite], for which the flash point came out at 46.00 °C.

The molecule `FC(F)(F)c1ccccc1` [trifluoromethylbenzene] had a flash point of 12.00 °C.

`C[Si](C)(C)O[Si](C)(O[Si](C)(C)C)O[Si](C)(C)C` [trimethyl-[methyl-bis(trimethylsilyloxy)silyl]oxysilane] displayed a flash point of 86.00 °C.

Regarding `c1ccc(OP(Oc2ccccc2)Oc2ccccc2)cc1` [triphenyl phosphite], the flash point turned out to be 218.00 °C.

For `O.c1cc[c]([Sn]([c]2ccccc2)[c]2ccccc2)cc1` [triphenyltin;hydrate], the flash point was found to be 400.00 °C.

As to `O=P(OC(CCl)CCl)(OC(CCl)CCl)OC(CCl)CCl` [tris(1,3-dichloropropan-2-yl) phosphate], the flash point was 252.00 °C.

`CCCCOCCOP(=O)(OCCOCCCC)OCCOCCCC` [tris(2-butoxyethyl) phosphate] yielded a flash point of 224.00 °C.

`CCCCC(CC)COP(=O)(OCC(CC)CCCC)OCC(CC)CCCC` (stereo not given) [tris(2-ethylhexyl) phosphate]: the flash point was 152.00 °C.

`Cc1ccccc1OP(=O)(Oc1ccccc1C)Oc1ccccc1C` [tris(2-methylphenyl) phosphate] displayed a flash point of 225.00 °C.

`Cc1cccc(OP(=O)(Oc2cccc(C)c2)Oc2cccc(C)c2)c1` [tris(3-methylphenyl) phosphate] registered a flash point of 210.00 °C.

Take `CCCCSP(SCCCC)SCCCC` [tris(butylsulfanyl)phosphane]: the flash point is 146.00 °C.

`C=CCCCCCCCCC` [undec-1-ene] came in with a flash point of 71.00 °C.

`CCCCCCCCCC(C)=O` [undecan-2-one] returned a flash point of 89.00 °C.

Molecule `CCCCCCCCCCCS` [undecane-1-thiol] returned a flash point of 109.00 °C.

The molecule `CCCCCCCCCCCc1ccccc1` [undecylbenzene] showed a flash point of 141.00 °C.

`CN(C)C(=S)[S-].CN(C)C(=S)[S-].[Zn+2]` [zinc;N,N-dimethylcarbamodithioate]: the flash point turned out to be 93.00 °C.
